Consider 2 compounds from patent US6529835B1, “High throughput methods, systems and apparatus for performing cell based screening assays” (Caliper Technologies Corp., priority 1998, dated 2003).

Each structure is given as a SMILES string.

The subject of experiment [1] is P2Y receptor on THP-1 cells. Description: Dual label cell function assay, calcium response of THP-1 cells to UTP (Fluo-3 / Syto-17, on-chip). In kind it is cell-based. As to the method: (§1) Cell Culture—Cells (CHO or THP-1) were obtained from the ATCC. THP-1 cells were cultured in RPMI 1640 media containing 10% fetal bovine serum (FBS), sodium pyruvate (1 mM), L-glutamine (2 mM), Penicillin-G/Streptomycin (100 u/ml, 100 μ/ml), beta-mercaptoethanol (50 μM), HEPES buffer, pH 7.4 (10 mM). CHO cells were cultured in Ham's F12 media containing 10% FBS, L-glutamine (2 mM), and Penicillin-G/Streptomycin (100 u/ml/100 μg/ml). The cells were maintained by splitting every 3-4 days.
(§2) Dye Loading of Cells—The cells were loaded with Fluo-3-AM dye (Molecular Probes) using a 4 μM solution of the dye in Hank's Balanced Salt Solution (HBSS) containing calcium and magnesium but lacking phenol red. Added to the HBSS were 1% FBS, 2.5 mM probenecid, 30 mM HEPES, pH 7.0, and 0.05% pluronic acid. The cells were incubated in the dye containing solution at approximately, 5-9×10^6 cells/5 ml for 50 minutes in a CO2 incubator at 37° C. […]
(§3) The fluorescence of the cells was measured using two PMT's on a Nikon inverted microscope and fluorescein/texas red filter sets (Fluo-3: Ex. max=506, Em. max=526 & Syto-17: Ex. max=621, Em. max=634 nm) for two color analysis. Using the combination of Fluo-3 and Syto-17 dyes, there was no interference by fluorescence quenching of one dye's emission by the other dye. […] Syto-17 was therefore an indicator of cell density in the reading area. […]

For the next experiment, the system named is CHO cells. Kind of experiment: Dual label cell function assay, intracellular calcium in CHO cells (Fluo-3 / Syto-17, on-chip). It counts as cell-based. Particulars: ionomycin 0, 1 μM, 3 μM, 10 μM and 30 μM, FIGS. 11A-11F. As to the method: as §1, §2, §3
In general terms: Calcium flux is commonly read through the fluorescence of an indicator in the cells.

With `O=c1ccn([C@@H]2O[C@H](COP(=O)(O)OP(=O)(O)OP(=O)(O)O)[C@@H](O)[C@H]2O)c(=O)[nH]1` [UTP], the “time to peak of calcium response after sample introduction” value in experiment [1] (10 μM UTP, FIG. 15) was ≤ 5 s. Also, the “ratio of the Fluo-3 and Syto-17 fluorescence (the slope determined by linear regression)” value in experiment [1] (30 μM UTP versus no UTP, FIG. 13) is “changes with treatment with UTP”. On to `C[C@H](CCC(=O)O)C[C@H](C)C[C@H](C)C(=O)/C=C(\O)[C@H](C)C[C@H](C)C/C=C/[C@@H](C)[C@@H](O)[C@@H](C)[C@@H](O)C[C@@H]1CC[C@@](C)([C@H]2CC[C@@](C)([C@@H](C)O)O2)O1` [ionomycin], for which the “slope of the best fit line for the scatter plots (ratio of calcium modulated fluorescence to cell number; measure of intracellular calcium concentration)” value in the experiment with CHO cells is listed as “increases with increasing ionomycin concentration”.
